Numbered stars: 1 amine (or outer) side, 2 acyl side, 3 side chain; on linkers, the order of the positions; unused ones are H or OH. Square brackets hold non-standard residues; d marks the D form. Peptide text beside a SMILES is read from it. * marks the point of attachment. DOTA = O=C(O)CN1CCN(CC(=O)O)CCN(CC(=O)*)CCN(CC(=O)O)CC1; Gly(N-(3-F-4-Me-benzyl)) = Cc1ccc(CNCC(=O)*)cc1F; Api(1-amidino) = N=C(N)N1CCC(N)(C(=O)O)CC1; d(γGlu) = O=C(O)[C@@H](CCC(=O)[*:2])N[*:1]; HO(CH2CH2O)2CH2CH2CO = O=C(CCOCCOCCO)*; Phe(3-F) = N[C@@H](Cc1cccc(F)c1)C(=O)O; d2Nal = N[C@H](Cc1ccc2ccccc2c1)C(=O)O; Trx = NC[C@H]1CC[C@H](C(=O)O)CC1; X1 = O=C(CN1CCC(N[*:1])CC1)[*:2]; 4Pal = N[C@@H](Cc1ccncc1)C(=O)O; Lauroyl = CCCCCCCCCCCC(=O)*; Api = NC1(C(=O)O)CCNCC1; Ahx = NCCCCCC(=O)O; azaGly = NNC(=O)O; βAla = NCCC(=O)O; Sar = CNCC(=O)O
The compounds below were run against human kisspeptin receptor (Homo sapiens (Human), UniProt Q969F8) (assay: Human KISS1R binding assay (membrane competition binding)). Settings: 90 min at room temperature; competition with 0.2 nM [125I]-metastin (45-54); Flp-In T-Rex 293 kisspeptin membranes; metal complexes nonradioactive Ga, In, Lu; read-out: hKiSSR Binding Ki (90 min).
human kisspeptin receptor, sequence (Q969F8 whole entry): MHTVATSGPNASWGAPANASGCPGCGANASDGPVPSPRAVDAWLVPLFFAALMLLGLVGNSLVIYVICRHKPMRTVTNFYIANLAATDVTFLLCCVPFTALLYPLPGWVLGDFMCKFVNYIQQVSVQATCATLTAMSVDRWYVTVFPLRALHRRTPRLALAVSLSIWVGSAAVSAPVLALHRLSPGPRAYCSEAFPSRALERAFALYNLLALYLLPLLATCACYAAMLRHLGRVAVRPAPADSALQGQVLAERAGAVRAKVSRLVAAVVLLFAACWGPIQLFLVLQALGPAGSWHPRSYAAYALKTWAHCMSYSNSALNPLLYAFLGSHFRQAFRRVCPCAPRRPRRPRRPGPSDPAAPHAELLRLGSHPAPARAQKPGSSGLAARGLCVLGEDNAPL
Method in brief: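 Radioligand competition: 0.2 nM [125I]-metastin (45-54) displaced by test ligand (usually 0–10,000 nM) over 90 min at room temperature, pH 7.4 buffer with 0.1% BSA. Receptor source is crude membrane (5–10 μg) from tetracycline-induced Flp-In T-Rex 293 cells. Bound label filtered and counted; Ki from non-linear regression.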
With `Cc1ccc(CNCC(=O)N2CCC(NC(=O)[C@H](CC(C)C)NC(=O)NNC(=O)[C@H](Cc3ccccc3)NC(=O)[C@@H](NC(=O)[C@H](CC(N)=O)NC(=O)[C@@H](Cc3ccc4ccccc4c3)NC(=O)[C@@H](Cc3ccc(O)cc3)NC(=O)CCCCCNC(=O)CN3CCN(CC(=O)O)CCN(CC(=O)O)CCN(CC(=O)O)CC3)[C@@H](C)O)(C(=O)N[C@@H](Cc3c[nH]c4ccccc34)C(N)=O)CC2)cc1F` [Compound 304] ({DOTA-Ahx}-[dY][d2Nal]NTF[azaGly]L[Api](Gly(N-(3-F-4-Me-benzyl)))W-NH2) the Ki was under 10 nM.
`CSCC[C@H](NC(=O)c1ccc(CNC(=O)CN2CCN(CC(=O)O)CCN(CC(=O)O)CCN(CC(=O)O)CC2)cc1)C(=O)N[C@@H](Cc1ccccc1)C(=O)N[C@@H](CCCCNC(=O)CCCCC(=O)N[C@@H](Cc1ccccc1)C(=O)NNC(=O)N[C@@H](CC(C)C)C(=O)NC1(C(=O)N[C@@H](Cc2c[nH]c3ccccc23)C(N)=O)CCN(C(=O)CNCc2ccc(C)c(F)c2)CC1)C(=O)O` [Compound 203] was tested, and the Ki was under 10 nM.
`CCCCCCCCCCCC(=O)N[C@H](Cc1ccc(O)cc1)C(=O)N[C@H](Cc1ccc2ccccc2c1)C(=O)N[C@@H](CC(N)=O)C(=O)N[C@H](C(=O)N[C@@H](Cc1ccccc1)C(=O)NNC(=O)N[C@@H](CC(C)C)C(=O)NC1(C(=O)N[C@@H](Cc2c[nH]c3ccccc23)C(N)=O)CCN(C(=O)CNC)CC1)[C@@H](C)O` [Compound 400] (Lauroyl-[dY][d2Nal]NTF[azaGly]L[Api](Sar)W-NH2) was tested, and the Ki was under 10 nM.
Work on `CNCC(=O)N1CCC(NC(=O)[C@H](CC(C)C)NC(=O)NNC(=O)[C@H](Cc2ccccc2)NC(=O)[C@@H](NC(=O)[C@H](CC(N)=O)NC(=O)[C@@H](Cc2ccc3ccccc3c2)NC(=O)[C@@H](Cc2ccc(O)cc2)NC(C)=O)[C@@H](C)O)(C(=O)N[C@@H](Cc2c[nH]c3ccccc23)C(N)=O)CC1` [Compound 393] (Ac-[dY][d2Nal]NTF[azaGly]L[Api](Sar)W-NH2) yielded a Ki of under 10 nM.
`Cc1ccc(CNCC(=O)N2CCC(NC(=O)[C@H](CC(C)C)NC(=O)NNC(=O)[C@H](Cc3ccccc3)NC(=O)CN(C)C(=O)CN(C)C(=O)CN3CCN(CC(=O)O)CCN(CC(=O)O)CCN(CC(=O)O)CC3)(C(=O)N[C@@H](Cc3c[nH]c4ccccc34)C(N)=O)CC2)cc1F` [Compound 17] ({DOTA}-[Sar][Sar]F[azaGly]L[Api](Gly(N-(3-F-4-Me-benzyl)))W-NH2) showed a Ki of under 10 nM.
Work on `Cc1ccc(CNCC(=O)N2CCC(NC(=O)[C@H](CC(C)C)NC(=O)NNC(=O)[C@H](Cc3cccc(F)c3)NC(=O)[C@@H](NC(=O)[C@H](CC(N)=O)NC(=O)[C@H](CCC(=O)O)NC(=O)[C@@H](Cc3ccc(O)cc3)NC(=O)CCCCCNC(=O)CN3CCN(CC(=O)O)CCN(CC(=O)O)CCN(CC(=O)O)CC3)[C@@H](C)O)(C(=O)N[C@@H](Cc3c[nH]c4ccccc34)C(N)=O)CC2)cc1F` [Compound 36] ({DOTA-Ahx}-[dY]ENT[Phe(3-F)][azaGly]L[Api](Gly(N-(3-F-4-Me-benzyl)))W-NH2) yielded a Ki of under 10 nM.
Work on `Cc1ccc(CNCC(=O)N2CCC(NC(=O)[C@H](CC(C)C)NC(=O)NNC(=O)[C@H](Cc3ccccc3)NC(=O)CC[C@@H](NC(=O)CN3CCN(CC(=O)O)CCN(CC(=O)O)CCN(CC(=O)O)CC3)C(=O)O)(C(=O)N[C@@H](Cc3c[nH]c4ccccc34)C(N)=O)CC2)cc1F` [Compound 156] ({DOTA-d(γGlu)}-F[azaGly]L[Api](Gly(N-(3-F-4-Me-benzyl)))W-NH2) yielded a Ki of under 10 nM.
Compound `Cc1ccc(CNCC(=O)N2CCC(NC(=O)[C@H](CC(C)C)NC(=O)NNC(=O)[C@H](Cc3ccccc3)NC(=O)[C@H]3CC[C@H](CNC(=O)CN4CCN(CC(=O)O)CCN(CC(=O)O)CCN(CC(=O)O)CC4)CC3)(C(=O)N[C@@H](Cc3c[nH]c4ccccc34)C(N)=O)CC2)cc1F` [Compound 192] ({DOTA-Trx}-F[azaGly]L[Api](Gly(N-(3-F-4-Me-benzyl)))W-NH2) has a Ki of under 10 nM.
`Cc1ccc(CNCC(=O)N2CCC(NC(=O)[C@H](CC(C)C)NC(=O)NNC(=O)[C@H](Cc3ccccc3)NC(=O)[C@@H](NC(=O)[C@H](CC(N)=O)NC(=O)[C@@H](CCCCNC(=O)CN3CCN(CC(=O)O)CCN(CC(=O)O)CCN(CC(=O)O)CC3)NC(=O)CCOCCOCCO)[C@@H](C)O)(C(=O)N[C@@H](Cc3ccncc3)C(N)=O)CC2)cc1F` [Compound 254] ({HO(CH2CH2O)2CH2CH2CO}-[dK](DOTA)NTF[azaGly]L[Api](Gly(N-(3-F-4-Me-benzyl)))[4Pal]-NH2) showed a Ki of under 10 nM.
With `Cc1ccc(CNCC(=O)N2CCC(NC(=O)[C@H](CC(C)C)NC(=O)NNC(=O)[C@H](Cc3ccccc3)NC(=O)[C@@H](NC(=O)[C@H](CC(N)=O)NC(=O)[C@@H](Cc3c[nH]c4ccccc34)NC(=O)[C@@H](Cc3c[nH]cn3)NC(=O)[C@@H](Cc3ccc(O)cc3)NC(=O)CCCCCNC(=O)CN3CCN(CC(=O)O)CCN(CC(=O)O)CCN(CC(=O)O)CC3)[C@@H](C)O)(C(=O)N[C@@H](Cc3c[nH]c4ccccc34)C(N)=O)CC2)cc1F` [Compound 32] ({DOTA-Ahx}-[dY][dH][dW]NTF[azaGly]L[Api](Gly(N-(3-F-4-Me-benzyl)))W-NH2) the Ki was under 10 nM.
Compound `Cc1ccc(CNCC(=O)N2CCC(NC(=O)[C@H](CC(C)C)NC(=O)NNC(=O)[C@H](Cc3cccc(F)c3)NC(=O)[C@@H](NC(=O)[C@H](CC(N)=O)NC(=O)[C@H](CCC(=O)O)NC(=O)[C@@H](Cc3ccc(O)cc3)NC(=O)CN3CCC(NC(=O)CN4CCN(CC(=O)O)CCN(CC(=O)O)CCN(CC(=O)O)CC4)CC3)[C@@H](C)O)(C(=O)N[C@@H](Cc3c[nH]c4ccccc34)C(N)=O)CC2)cc1F` [Compound 24] ({DOTA}-[X1][dY]ENT[Phe(3-F)][azaGly]L[Api](Gly(N-(3-F-4-Me-benzyl)))W-NH2) has a Ki of under 10 nM.
With `Cc1ccc(CNCC(=O)N2CCC(NC(=O)[C@H](CC(C)C)NC(=O)NNC(=O)[C@H](Cc3ccccc3)NC(=O)[C@@H](NC(=O)[C@H](CC(N)=O)NC(=O)NNC(=O)[C@@H](Cc3ccc(O)cc3)NC(=O)CCCCCNC(=O)CN3CCN(CC(=O)O)CCN(CC(=O)O)CCN(CC(=O)O)CC3)[C@@H](C)O)(C(=O)N[C@@H](Cc3c[nH]c4ccccc34)C(N)=O)CC2)cc1F` [Compound 108] ({DOTA-Ahx}-[dY][azaGly]NTF[azaGly]L[Api](Gly(N-(3-F-4-Me-benzyl)))W-NH2) the Ki was under 10 nM.
Work on `Cc1ccc(CNCC(=O)N2CCC(NC(=O)[C@H](CC(C)C)NC(=O)NNC(=O)[C@H](Cc3ccccc3)NC(=O)[C@@H](CC(N)=O)NC(=O)[C@@H](CC(N)=O)NC(=O)[C@@H](CC(N)=O)NC(=O)[C@@H](CC(N)=O)NC(=O)[C@@H](CC(N)=O)NC(=O)CCNC(=O)CN3CCN(CC(=O)O)CCN(CC(=O)O)CCN(CC(=O)O)CC3)(C(=O)N[C@@H](Cc3c[nH]c4ccccc34)C(N)=O)CC2)cc1F` [Compound 14] ({DOTA-βAla}-[dN][dN][dN][dN][dN]F[azaGly]L[Api](Gly(N-(3-F-4-Me-benzyl)))W-NH2) yielded a Ki of 10 to 100 nM.
Work on `CC(C)C[C@H](NC(=O)NNC(=O)[C@H](Cc1ccccc1)NC(=O)[C@@H](NC(=O)[C@H](CC(N)=O)NC(=O)[C@@H](Cc1ccc2ccccc2c1)NC(=O)[C@@H](Cc1ccc(O)cc1)NC(=O)CCCCCNC(=O)CN1CCN(CC(=O)O)CCN(CC(=O)O)CCN(CC(=O)O)CC1)[C@@H](C)O)C(=O)NC1(C(=O)N[C@@H](Cc2c[nH]c3ccccc23)C(N)=O)CCN(C(=N)N)CC1` [Compound 269] ({DOTA-Ahx}-[dY][d2Nal]NTF[azaGly]L[Api(1-amidino)]W-NH2) yielded a Ki of under 10 nM.
